Legend:
GPER over ERα = conditions: ref Dennis et al., 2011; cited from earlier work
FOXO3a-GFP = assay: FOXO3a translocation in MCF-7 cells; conditions: E2 10 nM, G-1 100 nM, AB-1 1 μM, EGF 50 ng/mL
ERα over ERβ = conditions: ref Stauffer et al., 2000; cited from earlier work
ERα = target: T1, ERα (Homo sapiens, UniProt P03372); conditions: MCF-7 cells; 24 h; Western blot
T1 sequence (P03372 1-595): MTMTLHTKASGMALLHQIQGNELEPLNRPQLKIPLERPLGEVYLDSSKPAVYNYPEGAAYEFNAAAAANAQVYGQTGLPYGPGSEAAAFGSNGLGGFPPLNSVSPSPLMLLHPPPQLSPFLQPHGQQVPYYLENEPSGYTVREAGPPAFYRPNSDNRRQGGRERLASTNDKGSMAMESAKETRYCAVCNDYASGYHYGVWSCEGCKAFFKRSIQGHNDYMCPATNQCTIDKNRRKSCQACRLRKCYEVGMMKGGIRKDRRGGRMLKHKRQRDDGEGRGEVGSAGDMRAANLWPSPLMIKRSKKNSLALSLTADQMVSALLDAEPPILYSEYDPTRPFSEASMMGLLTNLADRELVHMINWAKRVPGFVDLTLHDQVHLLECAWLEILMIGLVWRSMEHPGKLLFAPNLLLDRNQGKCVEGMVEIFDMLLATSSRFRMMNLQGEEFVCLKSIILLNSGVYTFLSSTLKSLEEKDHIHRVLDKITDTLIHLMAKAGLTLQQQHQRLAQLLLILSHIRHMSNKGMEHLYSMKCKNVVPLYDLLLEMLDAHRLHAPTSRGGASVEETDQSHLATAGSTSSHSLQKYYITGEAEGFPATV

[1] = test system: uterus of ovariectomized mice; assay: Mouse uterine estrogenicity: uterine wet weight; format: in vivo; conditions: dose of 10 ng; subcutaneous; 18 h
ERβ-GFP [2] = conditions: COS7 cells; 1 nM E2 or 1 μM AB-1
ERβ-GFP [3] = conditions: COS7 cells; 1 nM E2 or 1 μM AB-1; 15 min
ERβ-GFP [4] = test system: ERβ-GFP

## CC(=O)c1ccc2c(c1)[C@@H]1C=CC[C@@H]1[C@H](c1cc3c(cc1Br)OCO3)N2 [G-1]
GPER over ERα
  Selectivity for GPER over ERα: > 10^5 fold
FOXO3a-GFP
  FOXO3a translocation from nucleus to cytoplasm: stimulated cytosolic translocation

## CCCc1c(-c2ccc(O)cc2)nn(-c2ccc(O)cc2)c1-c1ccc(O)cc1 [PPT]
ERα over ERβ
  Selectivity for ERα over ERβ: about 400 fold

## C[C@]12CC[C@@H]3c4ccc(O)cc4C[C@@H](CCCCCCCCC[S+]([O-])CCCC(F)(F)C(F)(F)F)[C@H]3[C@@H]1CC[C@@H]2O (stereo partly shown) [ICI182,780]
ERα
  Effect on ERα levels: potently decreased

## C[C@]12CC[C@@H]3c4ccc(O)cc4CC[C@H]3[C@@H]1CC[C@@H]2O [E2, 17β-estradiol]
[1]
  Imbibition response: strong imbibition response
ERβ-GFP [2]
  Induction of calcium mobilization, ERβ: induced rapid calcium mobilization
ERβ-GFP [3]
  PI3K activation (nuclear translocation of PH-mRFP1), ERβ: induced strong nuclear localization of the PH-mRFP1 reporter
FOXO3a-GFP
  FOXO3a translocation from nucleus to cytoplasm: stimulated cytosolic translocation
ERβ-GFP [4]
  Block of E2-Alexa633 binding to ERβ-GFP (confocal): blocked binding of E2-Alexa633

## EGF: growth factor that stimulates the PI3K pathway (NSDSECPLSHDGYCLHDGVCMYIEALDKYACNCVVGYIGERCQYRDLKWWELR; UniProt P01133 971-1023, looked up)
FOXO3a-GFP
  FOXO3a translocation from nucleus to cytoplasm: translocated from the nucleus to the cytoplasm

From PMC6925632 (Cell chemical biology, 2019)
